The results in this text go back to patent US9518061B2, “Substituted pyrazolylpyrazole derivative and use of same as herbicide” (KYOYU AGRI CO., LTD., priority 2013, dated 2016).

Holding throughout (format): in vivo
One series deals with Echinochloa crus-galli. The experiment in a line: Paddy herbicidal activity test. The note with it: irrigated paddy pot, treated at 3.5 leaf stage of Echinochloa crus-galli, 30 days. The procedure:
(§1) 1. Paddy Herbicidal Activity Test
(§2) Rice paddy soil was filled into a 1/10000 are pot followed by the addition of suitable amounts of water and chemical fertilizer, kneading, seeding with Echinochloa crus-galli, Monochoria vaginalis and Scirpus juncoides and maintaining in an irrigated state at a water depth of 3 cm.
(§3) Wettable powder of Target Compound (I) shown in Table 1 prepared in compliance with the preparation examples were diluted with a suitable amount of water, rice plants in the 2.0 leaf stage were transplanted during 3.5 leaf stage of Echinochloa crus-galli, and treated by dropping in chemical in the prescribed amount per are using a pipette.
(§4) After treating for 30 days in a glass greenhouse at an average atmospheric temperature of 30° C., the herbicidal efficacy thereof was investigated.
(§5) Evaluation of herbicidal efficacy was carried out by comparing growth inhibition rate (%) with an untreated group, while evaluation of phytotoxicity was carried out by comparing growth inhibition rate (%) with the state of a complete eradication group, and were evaluated at 11 levels indicated below.

A further series concerns Monochoria vaginalis. The series can be described thus: Paddy herbicidal activity test. The conditions noted are these: irrigated paddy pot, 30 days. The procedure: as §1, §2, §3, §4, §5
A further series has as its system Scirpus juncoides. The series can be described thus: Paddy herbicidal activity test. The note with it: irrigated paddy pot, 30 days. Here is the method:
as §1, §2, §3, §4, §5

For a further series, the system named is Rice plants. The experiment in a line: Paddy herbicidal activity test, phytotoxicity to transplanted rice. The note with it: rice transplanted in 2.0 leaf stage, 30 days. Here is the method:
as §1, §2, §3, §4, §5

Series [1] concerns Digitaria ciliaris. The experiment in a line: Farming soil treatment test. The note with it: soil surface spray prior to weed growth, 30 days. Here is the method: (§6) 2. Farming Soil Treatment Test
(§7) Field soil was filled into a 1/6000 are pot followed by seeding with Digitaria ciliaris, Chenopodium album and Amaranthus retroflexus and covering with soil.
(§8) Wettable powder of compounds of formula (D shown in Table 1 prepared in compliance with the preparation examples were diluted with water to the prescribed amount of chemical and uniformly sprayed onto each soil surface layer using 10 liters of sprayed water per are prior to weed growth following seeding.
as §4
(§9) Evaluation of herbicidal efficacy was carried out in the same manner as the above-mentioned Test Example 1.

The test system of series [2] is Chenopodium album. The series can be described thus: Farming soil treatment test. The conditions noted are these: soil surface spray prior to weed growth, 30 days. Here is the method:
as §6, §7, §8, §4, §9

Series [3] relates to Amaranthus retroflexus. The series can be described thus: Farming soil treatment test. The conditions noted are these: soil surface spray prior to weed growth, 30 days. The procedure: as §6, §7, §8, §4, §9
For series [4], the system named is Digitaria ciliaris. The experiment in a line: Weed foliar treatment test. The note with it: foliar spray at 1.0 to 2.0 leaf stage of Digitaria ciliaris, 3 weeks. The procedure:
(§10) 3. Weed Foliar Treatment Test
(§11) Soil was filled into a 1/6000 are pot followed by seeding with Digitaria ciliaris, Chenopodium album and Amaranthus retroflexus, covering with soil, and cultivating in a glass greenhouse at an average atmospheric temperature of 25° C.
(§12) Wettable powder of Target Compound (I) shown in Table 1 prepared in compliance with the preparation examples were diluted with water to the prescribed amount of chemical and uniformly sprayed onto the weeds using 15 liters of sprayed water per are when Digitaria ciliaris had grown to the 1.0 to 2.0 leaf stage.
(§13) After treating for 3 weeks in a glass greenhouse at an average atmospheric temperature of 25° C., the herbicidal efficacy thereof was investigated.
as §9

Series [5] concerns Chenopodium album. The experiment in a line: Weed foliar treatment test. The note with it: foliar spray, 3 weeks. The procedure: as §10, §11, §12, §13, §9
Series [6] concerns Amaranthus retroflexus. The series can be described thus: Weed foliar treatment test. The note with it: foliar spray, 3 weeks. The procedure: as §10, §11, §12, §13, §9

In the case of `N#Cc1cnn(-c2nn3c(c2Br)CCCC3)c1N(CCCl)C(=O)C(F)(F)F` [Compound 16], the “herbicidal efficacy (growth inhibition rate level) Echinochloa crus-galli” value in the series on Echinochloa crus-galli (1g a.i./10a) was 9 (90% to less than 100%); in the series on Echinochloa crus-galli (5g a.i./10a), 10 (100%). For the same molecule, the “herbicidal efficacy (growth inhibition rate level) Monochoria vaginalis” value in the series with Monochoria vaginalis (1g a.i./10a) is recorded as 7 (70% to less than 80%); with Monochoria vaginalis (5g a.i./10a) it was 8 (80% to less than 90%). Also, the figures for the “herbicidal efficacy (growth inhibition rate level) Scirpus juncoides” value in the series with Scirpus juncoides (1g a.i./10a) and in the series with Scirpus juncoides (5g a.i./10a) were 8 (80% to less than 90%) and 9 (90% to less than 100%), respectively. For the same molecule, the figures for the “phytotoxicity (growth inhibition rate level) Rice plants” value with Rice plants (1g a.i./10a) and in the series on Rice plants (5g a.i./10a) were 0 (0 (exponent): 0% to less than 10% (growth inhibition rate)) and 1 (10% to less than 20%), respectively. The “herbicidal efficacy (growth inhibition rate level) Digitaria ciliaris” value in the series on Digitaria ciliaris [1] (5g a.i./10a), in the series on Digitaria ciliaris [1] (10g a.i./10a), in the series with Digitaria ciliaris [4] (5g a.i./10a) and in the series with Digitaria ciliaris [4] (10g a.i./10a) was 10 (100%) in each case. The “herbicidal efficacy (growth inhibition rate level) Chenopodium album” value in the series on Chenopodium album [2] (5g a.i./10a), in the series with Chenopodium album [2] (10g a.i./10a), with Chenopodium album [5] (5g a.i./10a) and with Chenopodium album [5] (10g a.i./10a) was 10 (100%) throughout. Moreover, the “herbicidal efficacy (growth inhibition rate level) Amaranthus retroflexus” value in the series with Amaranthus retroflexus [3] (5g a.i./10a), with Amaranthus retroflexus [3] (10g a.i./10a), in the series with Amaranthus retroflexus [6] (5g a.i./10a) and in the series with Amaranthus retroflexus [6] (10g a.i./10a) was 10 (100%) throughout.
As to `N#Cc1cnn(-c2nn3c(c2Cl)CCCC3)c1NCCCl` [Control agent 4.92], the “herbicidal efficacy (growth inhibition rate level) Echinochloa crus-galli” value is recorded as 1 (10% to less than 20%) in the series on Echinochloa crus-galli (1g a.i./10a) and 2 (20% to less than 30%) with Echinochloa crus-galli (5g a.i./10a). Besides, the “herbicidal efficacy (growth inhibition rate level) Monochoria vaginalis” value in the series on Monochoria vaginalis (1g a.i./10a) was 0 (0 (exponent): 0% to less than 10% (growth inhibition rate)); in the series on Monochoria vaginalis (5g a.i./10a), 1 (10% to less than 20%). For the same molecule, the entries for the “herbicidal efficacy (growth inhibition rate level) Scirpus juncoides” value in the series with Scirpus juncoides (1g a.i./10a) and in the series on Scirpus juncoides (5g a.i./10a) were 2 (20% to less than 30%) and 4 (40% to less than 50%), respectively. Also, the “phytotoxicity (growth inhibition rate level) Rice plants” value in the series on Rice plants (1g a.i./10a) is 0 (0 (exponent): 0% to less than 10% (growth inhibition rate)); in the series with Rice plants (5g a.i./10a), 1 (10% to less than 20%). Moreover, the “herbicidal efficacy (growth inhibition rate level) Digitaria ciliaris” value is reported as 2 (20% to less than 30%) in the series on Digitaria ciliaris [1] (5g a.i./10a), 3 (30% to less than 40%) with Digitaria ciliaris [1] (10g a.i./10a), 4 (40% to less than 50%) with Digitaria ciliaris [4] (5g a.i./10a) and 5 (50% to less than 60%) with Digitaria ciliaris [4] (10g a.i./10a). In addition, the “herbicidal efficacy (growth inhibition rate level) Chenopodium album” value in the series on Chenopodium album [2] (5g a.i./10a) is 4 (40% to less than 50%); with Chenopodium album [2] (10g a.i./10a), 5 (50% to less than 60%); with Chenopodium album [5] (5g a.i./10a), 3 (30% to less than 40%); with Chenopodium album [5] (10g a.i./10a), 6 (60% to less than 70%). For the same molecule, the “herbicidal efficacy (growth inhibition rate level) Amaranthus retroflexus” value in the series with Amaranthus retroflexus [3] (5g a.i./10a) is 3 (30% to less than 40%); in the series with Amaranthus retroflexus [3] (10g a.i./10a) it was 4 (40% to less than 50%); in the series on Amaranthus retroflexus [6] (5g a.i./10a) it was 4 (40% to less than 50%); in the series on Amaranthus retroflexus [6] (10g a.i./10a) it was 5 (50% to less than 60%).
Take `COCCN(C(=O)C(F)(F)F)c1c([N+](=O)[O-])cnn1-c1nn2c(c1Cl)CCCC2` [Compound 20]: the “herbicidal efficacy (growth inhibition rate level) Echinochloa crus-galli” value is reported as 9 (90% to less than 100%) with Echinochloa crus-galli (1g a.i./10a) and 10 (100%) with Echinochloa crus-galli (5g a.i./10a). Moreover, the “herbicidal efficacy (growth inhibition rate level) Monochoria vaginalis” value in the series with Monochoria vaginalis (1g a.i./10a) and with Monochoria vaginalis (5g a.i./10a) was 9 (90% to less than 100%) throughout. Moreover, the “herbicidal efficacy (growth inhibition rate level) Scirpus juncoides” value is given as 9 (90% to less than 100%) in the series with Scirpus juncoides (1g a.i./10a) and 10 (100%) with Scirpus juncoides (5g a.i./10a). The “phytotoxicity (growth inhibition rate level) Rice plants” value in the series on Rice plants (1g a.i./10a) and in the series with Rice plants (5g a.i./10a) was 1 (10% to less than 20%) each time. Also, the “herbicidal efficacy (growth inhibition rate level) Digitaria ciliaris” value in the series on Digitaria ciliaris [1] (5g a.i./10a), in the series with Digitaria ciliaris [1] (10g a.i./10a), with Digitaria ciliaris [4] (5g a.i./10a) and in the series with Digitaria ciliaris [4] (10g a.i./10a) was 10 (100%) each time. Besides, the “herbicidal efficacy (growth inhibition rate level) Chenopodium album” value in the series with Chenopodium album [2] (5g a.i./10a), in the series on Chenopodium album [2] (10g a.i./10a), in the series with Chenopodium album [5] (5g a.i./10a) and in the series on Chenopodium album [5] (10g a.i./10a) was 10 (100%) each time. Besides, the “herbicidal efficacy (growth inhibition rate level) Amaranthus retroflexus” value with Amaranthus retroflexus [3] (5g a.i./10a), in the series with Amaranthus retroflexus [3] (10g a.i./10a), with Amaranthus retroflexus [6] (5g a.i./10a) and with Amaranthus retroflexus [6] (10g a.i./10a) was 10 (100%) in each case.
Turning to `CN(C(=O)C(F)(F)F)c1c(C#N)cnn1-c1nn2c(c1Cl)CCCC2` [Control agent 4.237], the “herbicidal efficacy (growth inhibition rate level) Echinochloa crus-galli” value is given as 1 (10% to less than 20%) in the series on Echinochloa crus-galli (1g a.i./10a) and 4 (40% to less than 50%) in the series on Echinochloa crus-galli (5g a.i./10a). The results for the “herbicidal efficacy (growth inhibition rate level) Monochoria vaginalis” value in the series on Monochoria vaginalis (1g a.i./10a) and in the series on Monochoria vaginalis (5g a.i./10a) were 2 (20% to less than 30%) and 3 (30% to less than 40%), respectively. Besides, the figures for the “herbicidal efficacy (growth inhibition rate level) Scirpus juncoides” value in the series with Scirpus juncoides (1g a.i./10a) and in the series on Scirpus juncoides (5g a.i./10a) were 2 (20% to less than 30%) and 4 (40% to less than 50%), respectively. Moreover, the “phytotoxicity (growth inhibition rate level) Rice plants” value in the series on Rice plants (1g a.i./10a) is listed as 1 (10% to less than 20%); in the series with Rice plants (5g a.i./10a) it was 2 (20% to less than 30%). The “herbicidal efficacy (growth inhibition rate level) Digitaria ciliaris” value in the series with Digitaria ciliaris [1] (5g a.i./10a) is recorded as 4 (40% to less than 50%); with Digitaria ciliaris [1] (10g a.i./10a), 5 (50% to less than 60%); with Digitaria ciliaris [4] (5g a.i./10a), 5 (50% to less than 60%); in the series with Digitaria ciliaris [4] (10g a.i./10a), 6 (60% to less than 70%). The “herbicidal efficacy (growth inhibition rate level) Chenopodium album” value is on record as 4 (40% to less than 50%) in the series with Chenopodium album [2] (5g a.i./10a), 4 (40% to less than 50%) in the series with Chenopodium album [2] (10g a.i./10a), 4 (40% to less than 50%) with Chenopodium album [5] (5g a.i./10a) and 5 (50% to less than 60%) with Chenopodium album [5] (10g a.i./10a). For the same molecule, the “herbicidal efficacy (growth inhibition rate level) Amaranthus retroflexus” value in the series on Amaranthus retroflexus [3] (5g a.i./10a) is recorded as 5 (50% to less than 60%); in the series with Amaranthus retroflexus [3] (10g a.i./10a), 5 (50% to less than 60%); in the series with Amaranthus retroflexus [6] (5g a.i./10a), 4 (40% to less than 50%); in the series on Amaranthus retroflexus [6] (10g a.i./10a), 6 (60% to less than 70%).
